Test results: patent US20140328852A1, “IMMUNOGENIC GLUTEN PEPTIDES AND USES THEREOF” (UNIVERSIDAD DE VALLADOLID, priority 2011, published 2014)

How the values were obtained:
Format in all cases: cell-based, human
[1] = tested on: dendritic cells derived from monocytes; assay: Phenotypic maturation of monocyte-derived dendritic cells (flow cytometry of membrane markers); settings: dendritic cells from healthy controls, peptide 100 μg/mL, 48 hours
Method: FIG. 2. […] Shadowed histograms represent the expression of the co-stimulator markers (CD40, CD80, CD86) or activators (CD83) in dendritic cells. Empty histograms represent isotype controls. This experiment is representative of three independent experiments; each of them is performed by triplicate.
(§1) Mononuclear cells from ABO-compatible peripheral blood were isolated by centrifugation on a density gradient, and magnetic beads with anti-CD14 antibodies to separate CD14+ monocytes, that were induced for 6 days to differentiate into immature dendritic cells by IL-4 and GM-CSF (confirmed by flow cytometry) were isolated too. These cells were first stimulated for 48 hours with the 8-mer peptide (100 μg/mL, 10 μg/mL, 1 μg/mL) and other known gliadin peptides: 19-mer (100 μg/mL) and 33-mer (100 μg/mL) and then a co-culture with autologous T lymphocytes was performed (population CD14-obtained above), in which dendritic cells act as antigen presenting cells. As negative and positive controls of stimulation, a CD14-cell culture without dendritic cells (basal), and CD14-cells stimulated with lipopolysaccharide (LPS) were used respectively. After 4 days, the cell proliferation rate was calculated according to the absorbance ratio of stimulated/unstimulated dendritic cells in co-culture with autologous T lymphocytes.

autologous T lymphocytes = assay: Proliferation of autologous T lymphocytes in co-culture with peptide-stimulated dendritic cells; settings: for proliferative response of autologous T lymphocytes (in words): celiac HLA-DQ2+ and non-celiac HLA-DQ2− samples; for proliferation rate: 4 days co-culture
Method: FIG. 4. […] The mean and standard deviation of an experiment performed in triplicate are shown, and which is representative of three independent experiments with similar results. Each experiment was performed with an untreated celiac patient with genotype HLA-DQ2^+ and parallel to a healthy non-celiac individual HLA-DQ2^− as a control (C).
Monocyte-derived dendritic cells serve as antigen presenting cells. Stimulation experiments carried out in the present invention included a positive proliferation control (T lymphocytes cultured in the presence of monocyte-derived dendritic cells pre-activated in the presence of lipopolysaccharide, LPS) and two negative controls: CD14-fraction enriched with cultured T lymphocytes i) in basal medium and ii) in the presence of monocyte-derived dendritic cells unstimulated.
as §1

[2] = tested on: dendritic cells derived from monocytes; assay: Cytokine mRNA expression in stimulated monocyte-derived dendritic cells; settings: dendritic cells from healthy donors, peptide 100 μg/ml, 48 hours
[3] = peptide 100 μg/ml, cells from celiac patients HLA-DQ2+, ratio stimulated/unstimulated dendritic cells
[4] = peptide 100 μg/ml, cells from non-celiac individuals HLA-DQ2−, ratio stimulated/unstimulated dendritic cells

| Substance | membrane expression of CD40 and CD80 markers [1] | membrane expression of CD83 or CD86 [1] | proliferative response of autologous T lymphocytes (in words) (autologous T lymphocytes) | proliferation rate (autologous T lymphocytes; peptide 1 μg/ml, cells from celiac patients HLA-DQ2+) | proliferation rate (autologous T lymphocytes; peptide 1 μg/ml, cells from non-celiac individuals HLA-DQ2−) | proliferation rate (autologous T lymphocytes; peptide 10 μg/ml, cells from celiac patients HLA-DQ2+) | proliferation rate (autologous T lymphocytes; peptide 10 μg/ml, cells from non-celiac individuals HLA-DQ2−) | proliferation rate (autologous T lymphocytes; [3]) | proliferation rate (autologous T lymphocytes; [4]) | expression of IL-4 mRNA [2] [times] | expression of IL-12p40 mRNA [2] |
| --- | --- | --- | --- | --- | --- | --- | --- | --- | --- | --- | --- |
| 8-mer: eight amino acid gliadin peptide (SEQ ID NO: 2) generated in the gut of celiac patients by bacterial proteases (FPLQPQQP; listed as Triticum aestivum) | increased | not | induced a proliferative response | 1.27±0.005 | 1.04±0.039 | 1.69±0.005 | 1.28±0.034 | 2.09±0.029 | 1.51±0.108 | 79 | 0.4 times |
| 19-mer: known gliadin peptide 19-mer (SEQ ID NO: 4) (LGQQQPFPPQQPYPQPQPF; listed as Triticum monococcum) | did not affect | did not affect | did not induce proliferation | – | – | – | – | 1.06±0.011 | 1.03±0.039 | 7.7 | 0.4 times |
| 33-mer: known immunodominant α-gliadin peptide 33-mer (SEQ ID NO: 5) (LQLQPFPQPELPYPQPELPYPQPELPYPQPQPF; Gluten peptide 33-mer) | did not affect | did not affect | did not induce proliferation | – | – | – | – | 1.04±0.005 | 1.04±0.018 | 0.001 | inhibited |
